In PubChem BioAssay (NCI):
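Growth conditions: 96-well plates. Treatment: test compound, 48 hours, 5 concentrations. Analysis: linear interpolation between bracketing concentrations; unreached endpoints set to highest concentration. The concentration for 50% growth inhibition is given as GI50. At the TGI there is no net growth.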

Columns and labels:
Assay in all cases: DTP human tumour cell line panel, 48 h
[1] = tested on: HOP-92 NSCLC
[2] = tested on: NCI-H23 lung
[3] = tested on: SR leukemia
[4] = tested on: COLO 205 colon
[5] = tested on: T-47D breast
[6] = tested on: MDA-MB-231 breast
[7] = tested on: HCT-116 colon
[8] = tested on: HL-60(TB) leukemia
[9] = tested on: SN12C renal
[10] = tested on: CAKI-1 renal
[11] = tested on: SK-MEL-2 melanoma
[12] = tested on: SF-539 CNS
[13] = tested on: NCI-H522 lung
[14] = tested on: 786-0 renal
[15] = tested on: LOX IMVI melanoma
[16] = tested on: SNB-19 CNS
[17] = tested on: HOP-62 NSCLC
[18] = tested on: BT-549 breast
[19] = tested on: OVCAR-5 ovarian
[20] = tested on: SF-268 CNS
[21] = tested on: SK-MEL-28 melanoma
[22] = tested on: NCI/ADR-RES ovarian
[23] = tested on: CCRF-CEM leukemia
[24] = tested on: HS 578T breast
[25] = tested on: OVCAR-8 ovarian
[26] = tested on: NCI-H226 lung
[27] = tested on: A549 NSCLC
[28] = tested on: UACC-257 melanoma
[29] = tested on: MALME-3M melanoma
[30] = tested on: MDA-MB-435
[31] = tested on: PC-3 prostate
[32] = tested on: SF-295 CNS
[33] = tested on: TK-10 renal
[34] = tested on: HCT-15 colon
[35] = tested on: UO-31 renal
[36] = tested on: ACHN renal
[37] = tested on: MCF7 breast
[38] = tested on: KM12 colon
[39] = tested on: SW-620 colon
[40] = tested on: OVCAR-3 ovarian
[41] = tested on: HCC-2998 colon
[42] = tested on: RXF 393 renal
[43] = tested on: IGROV1 ovarian
[44] = tested on: SNB-75 CNS
[45] = tested on: A498 renal
[46] = tested on: K-562 leukemia
[47] = tested on: OVCAR-4 ovarian
[48] = tested on: HT29 colon
[49] = tested on: RPMI-8226 leukemia
[50] = tested on: DU-145 prostate
[51] = tested on: U251 CNS
[52] = tested on: SK-MEL-5 melanoma
[53] = tested on: NCI-H460 lung
[54] = tested on: M14 melanoma
[55] = tested on: SK-OV-3 ovarian
[56] = tested on: MOLT-4 leukemia
[57] = tested on: UACC-62 melanoma

**Q.** `COc1ccc(C2=C(c3cn(C)c4ccccc34)C(=O)NC2=O)cc1` was tested. Which GI50 [1] did it give?
**A.** > 14.5 µM

**Q.** And the TGI [1]?
**A.** > 25 µM

**Q.** And the GI50 [2]?
**A.** > 25 µM

**Q.** And the TGI [2]?
**A.** > 25 µM

**Q.** And the GI50 [3]?
**A.** 6.14 µM

**Q.** And the TGI [3]?
**A.** > 25 µM

**Q.** What about the GI50 [4] of the same compound?
**A.** 10.7 µM

**Q.** And the TGI [4]?
**A.** > 25 µM

**Q.** What about the GI50 [5] of the same compound?
**A.** > 24.1 µM

**Q.** What about the TGI [5] of the same compound?
**A.** > 25 µM

**Q.** And the GI50 [6]?
**A.** > 25 µM

**Q.** And the TGI [6]?
**A.** > 25 µM

**Q.** And the GI50 [7]?
**A.** 12.7 µM

**Q.** What about the TGI [7] of the same compound?
**A.** > 25 µM

**Q.** And the GI50 [8]?
**A.** 14.5 µM

**Q.** And the TGI [8]?
**A.** > 25 µM

**Q.** And the GI50 [9]?
**A.** 24.5 µM

**Q.** And the TGI [9]?
**A.** > 25 µM

**Q.** What about the GI50 [10] of the same compound?
**A.** > 22.3 µM

**Q.** And the TGI [10]?
**A.** > 25 µM

**Q.** And the GI50 [11]?
**A.** 14.2 µM

**Q.** And the TGI [11]?
**A.** > 25 µM

**Q.** What about the GI50 [12] of the same compound?
**A.** 9.76 µM

**Q.** And the TGI [12]?
**A.** > 25 µM

**Q.** And the GI50 [13]?
**A.** > 12.3 µM

**Q.** What about the TGI [13] of the same compound?
**A.** > 25 µM

**Q.** What about the GI50 [14] of the same compound?
**A.** > 25 µM

**Q.** And the TGI [14]?
**A.** > 25 µM

**Q.** And the GI50 [15]?
**A.** 24.9 µM

**Q.** And the TGI [15]?
**A.** > 25 µM

**Q.** What about the GI50 [16] of the same compound?
**A.** > 25 µM

**Q.** And the TGI [16]?
**A.** > 25 µM

**Q.** And the GI50 [17]?
**A.** > 23.1 µM

**Q.** What about the TGI [17] of the same compound?
**A.** > 25 µM

**Q.** And the GI50 [18]?
**A.** > 25 µM

**Q.** And the TGI [18]?
**A.** > 25 µM

**Q.** And the GI50 [19]?
**A.** > 25 µM

**Q.** What about the TGI [19] of the same compound?
**A.** > 25 µM

**Q.** And the GI50 [20]?
**A.** > 20.9 µM

**Q.** And the TGI [20]?
**A.** > 25 µM

**Q.** And the GI50 [21]?
**A.** > 23 µM

**Q.** And the TGI [21]?
**A.** > 25 µM

**Q.** And the GI50 [22]?
**A.** > 17.3 µM

**Q.** And the TGI [22]?
**A.** > 25 µM

**Q.** And the GI50 [23]?
**A.** 16.3 µM

**Q.** And the TGI [23]?
**A.** > 25 µM

**Q.** And the GI50 [24]?
**A.** 9.65 µM

**Q.** What about the TGI [24] of the same compound?
**A.** > 25 µM

**Q.** What about the GI50 [25] of the same compound?
**A.** > 25 µM

**Q.** And the TGI [25]?
**A.** > 25 µM

**Q.** And the GI50 [26]?
**A.** > 22.3 µM

**Q.** And the TGI [26]?
**A.** > 25 µM

**Q.** What about the GI50 [27] of the same compound?
**A.** 14.1 µM

**Q.** What about the TGI [27] of the same compound?
**A.** > 25 µM

**Q.** And the GI50 [28]?
**A.** > 25 µM

**Q.** What about the TGI [28] of the same compound?
**A.** > 25 µM

**Q.** And the GI50 [29]?
**A.** > 25 µM

**Q.** What about the TGI [29] of the same compound?
**A.** > 25 µM

**Q.** What about the GI50 [30] of the same compound?
**A.** 1.56 µM

**Q.** What about the TGI [30] of the same compound?
**A.** > 14.7 µM

**Q.** And the GI50 [31]?
**A.** > 21.9 µM

**Q.** And the TGI [31]?
**A.** > 25 µM

**Q.** And the GI50 [32]?
**A.** > 17 µM

**Q.** And the TGI [32]?
**A.** > 25 µM

**Q.** And the GI50 [33]?
**A.** > 21 µM

**Q.** And the TGI [33]?
**A.** > 25 µM

**Q.** And the GI50 [34]?
**A.** 6.05 µM

**Q.** And the TGI [34]?
**A.** > 25 µM

**Q.** What about the GI50 [35] of the same compound?
**A.** > 23.7 µM

**Q.** What about the TGI [35] of the same compound?
**A.** > 25 µM

**Q.** And the GI50 [36]?
**A.** > 25 µM

**Q.** And the TGI [36]?
**A.** > 25 µM

**Q.** And the GI50 [37]?
**A.** 8.03 µM

**Q.** And the TGI [37]?
**A.** > 25 µM

**Q.** What about the GI50 [38] of the same compound?
**A.** 8 µM

**Q.** And the TGI [38]?
**A.** > 25 µM

**Q.** And the GI50 [39]?
**A.** 8.95 µM

**Q.** And the TGI [39]?
**A.** > 25 µM

**Q.** What about the GI50 [40] of the same compound?
**A.** 17 µM

**Q.** And the TGI [40]?
**A.** > 25 µM

**Q.** And the GI50 [41]?
**A.** > 23.1 µM

**Q.** And the TGI [41]?
**A.** > 25 µM

**Q.** What about the GI50 [42] of the same compound?
**A.** 10.6 µM

**Q.** What about the TGI [42] of the same compound?
**A.** > 25 µM

**Q.** What about the GI50 [43] of the same compound?
**A.** > 25 µM

**Q.** What about the TGI [43] of the same compound?
**A.** > 25 µM

**Q.** What about the GI50 [44] of the same compound?
**A.** 1.97 µM

**Q.** What about the TGI [44] of the same compound?
**A.** > 25 µM

**Q.** What about the GI50 [45] of the same compound?
**A.** 6.74 µM

**Q.** What about the TGI [45] of the same compound?
**A.** > 25 µM

**Q.** And the GI50 [46]?
**A.** 3.89 µM

**Q.** What about the TGI [46] of the same compound?
**A.** > 25 µM

**Q.** What about the GI50 [47] of the same compound?
**A.** > 14.6 µM

**Q.** And the TGI [47]?
**A.** > 25 µM

**Q.** What about the GI50 [48] of the same compound?
**A.** 9.43 µM

**Q.** What about the TGI [48] of the same compound?
**A.** > 25 µM

**Q.** What about the GI50 [49] of the same compound?
**A.** > 20.3 µM

**Q.** What about the TGI [49] of the same compound?
**A.** > 25 µM

**Q.** What about the GI50 [50] of the same compound?
**A.** > 25 µM

**Q.** What about the TGI [50] of the same compound?
**A.** > 25 µM

**Q.** And the GI50 [51]?
**A.** > 23.6 µM

**Q.** And the TGI [51]?
**A.** > 25 µM

**Q.** And the GI50 [52]?
**A.** > 18.4 µM

**Q.** What about the TGI [52] of the same compound?
**A.** > 25 µM

**Q.** And the GI50 [53]?
**A.** 11.1 µM

**Q.** What about the TGI [53] of the same compound?
**A.** > 25 µM

**Q.** And the GI50 [54]?
**A.** 19.4 µM

**Q.** What about the TGI [54] of the same compound?
**A.** > 25 µM

**Q.** And the GI50 [55]?
**A.** 24.3 µM

**Q.** And the TGI [55]?
**A.** > 25 µM

**Q.** What about the GI50 [56] of the same compound?
**A.** 15.5 µM

**Q.** What about the TGI [56] of the same compound?
**A.** > 25 µM

**Q.** What about the GI50 [57] of the same compound?
**A.** 13 µM

**Q.** What about the TGI [57] of the same compound?
**A.** > 25 µM
